Measured values reported in PubChem BioAssay AID1963842 (Molecular Pharmacology Branch, DTP, NCI, 2024).

Tested on: 677734-321-R-J1-PDC complex spheroid viability
Experiment: Anticancer human tumor 677734-321-R-J1-PDC patient-derived soft tissue sarcoma cell line growth inhibition [POLQ]
Settings: for IC50: curve of first compound; for viability, T/C: stronger effect = lower value
Outline: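 Three-cell-type spheroids modelling solid tumor plus stroma served as the readout system; POL inhibitors were tested individually and in combination, concentration ranges set by clinical Cmax where known.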

[1] = second compound 0.0316 µM, first compound 0.0316 µM
[2] = second compound 0.0316 µM, first compound 0.1 µM
[3] = second compound 0.0316 µM, first compound 0.316 µM
[4] = second compound 0.0316 µM, first compound 1 µM
[5] = second compound 0.1 µM, first compound 0.0316 µM
[6] = second compound 0.1 µM, first compound 0.1 µM
[7] = second compound 0.1 µM, first compound 0.316 µM
[8] = second compound 0.1 µM, first compound 1 µM
[9] = second compound 0.316 µM, first compound 0.0316 µM
[10] = second compound 0.316 µM, first compound 0.1 µM
[11] = second compound 0.316 µM, first compound 0.316 µM
[12] = second compound 0.316 µM, first compound 1 µM
[13] = second compound 1 µM, first compound 0.0316 µM
[14] = second compound 1 µM, first compound 0.1 µM
[15] = second compound 1 µM, first compound 0.316 µM
[16] = second compound 1 µM, first compound 1 µM
[17] = second compound 3.16 µM, first compound 0.0316 µM
[18] = second compound 3.16 µM, first compound 0.1 µM
[19] = second compound 3.16 µM, first compound 0.316 µM
[20] = second compound 3.16 µM, first compound 1 µM
[21] = second compound 10 µM, first compound 0.0316 µM
[22] = second compound 10 µM, first compound 0.1 µM
[23] = second compound 10 µM, first compound 0.316 µM
[24] = second compound 10 µM, first compound 1 µM
[25] = second compound 0.0316 µM, first compound 3.16 µM
[26] = second compound 0.0316 µM, first compound 10 µM
[27] = second compound 0.1 µM, first compound 3.16 µM
[28] = second compound 0.1 µM, first compound 10 µM
[29] = second compound 0.316 µM, first compound 3.16 µM
[30] = second compound 0.316 µM, first compound 10 µM
[31] = second compound 1 µM, first compound 3.16 µM
[32] = second compound 1 µM, first compound 10 µM
[33] = second compound 3.16 µM, first compound 3.16 µM
[34] = second compound 3.16 µM, first compound 10 µM
[35] = second compound 10 µM, first compound 3.16 µM
[36] = second compound 10 µM, first compound 10 µM
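Also: spheroids exposed to compounds for one week.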
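For viability, T/C in this document: 100% = vehicle DMSO treated spheroids.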

## C=CCn1c(=O)c2cnc(Nc3ccc(N4CCN(C)CC4)cc3)nc2n1-c1cccc(C(C)(C)O)n1 + Nc1ccc(C#CCN(C(=O)Cc2ncc(C(F)(F)F)cc2C(F)(F)F)c2ccc(F)cc2)nn1
Second compound 0.0316 µM
  IC50: 727 nM
Second compound 0.1 µM
  IC50: 682 nM
Second compound 0.316 µM
  IC50: 664 nM
Second compound 1 µM
  IC50: 644 nM
Second compound 3.16 µM
  IC50: 496 nM
Second compound 10 µM
  IC50: 805 nM
Second compound 0.0316 µM, first compound 0.00316 µM
  viability, T/C: 114%
Second compound 0.0316 µM, first compound 0.01 µM
  viability, T/C: 107%
[1]
  viability, T/C: 102%
[2]
  viability, T/C: 102%
[3]
  viability, T/C: 84.1%
[4]
  viability, T/C: 36.7%
Second compound 0.1 µM, first compound 0.00316 µM
  viability, T/C: 107%
Second compound 0.1 µM, first compound 0.01 µM
  viability, T/C: 111%
[5]
  viability, T/C: 122%
[6]
  viability, T/C: 97.2%
[7]
  viability, T/C: 80.8%
[8]
  viability, T/C: 35.1%
Second compound 0.316 µM, first compound 0.00316 µM
  viability, T/C: 119%
Second compound 0.316 µM, first compound 0.01 µM
  viability, T/C: 102%
[9]
  viability, T/C: 110%
[10]
  viability, T/C: 104%
[11]
  viability, T/C: 81.1%
[12]
  viability, T/C: 32.5%
Second compound 1 µM, first compound 0.00316 µM
  viability, T/C: 106%
Second compound 1 µM, first compound 0.01 µM
  viability, T/C: 102%
[13]
  viability, T/C: 112%
[14]
  viability, T/C: 93.2%
[15]
  viability, T/C: 85.4%
[16]
  viability, T/C: 29.3%
Second compound 3.16 µM, first compound 0.00316 µM
  viability, T/C: 114%
Second compound 3.16 µM, first compound 0.01 µM
  viability, T/C: 96.3%
[17]
  viability, T/C: 103%
[18]
  viability, T/C: 104%
[19]
  viability, T/C: 59%
[20]
  viability, T/C: 35.9%
Second compound 10 µM, first compound 0.00316 µM
  viability, T/C: 116%
Second compound 10 µM, first compound 0.01 µM
  viability, T/C: 113%
[21]
  viability, T/C: 108%
[22]
  viability, T/C: 97.1%
[23]
  viability, T/C: 74.6%
[24]
  viability, T/C: 44.2%

## CC1COCCN1c1cc(C2(S(C)(=N)=O)CC2)nc(-c2ccnc3[nH]ccc23)n1 (stereo unspecified) + Nc1ccc(C#CCN(C(=O)Cc2ncc(C(F)(F)F)cc2C(F)(F)F)c2ccc(F)cc2)nn1
Second compound 0.0316 µM
  IC50: 1370 nM
Second compound 0.1 µM
  IC50: 1230 nM
Second compound 0.316 µM
  IC50: 879 nM
Second compound 1 µM
  IC50: 1030 nM
Second compound 3.16 µM
  IC50: 884 nM
Second compound 10 µM
  IC50: 656 nM
[1]
  viability, T/C: 98.3%
[2]
  viability, T/C: 91.7%
[3]
  viability, T/C: 75%
[4]
  viability, T/C: 65.3%
[25]
  viability, T/C: 23.5%
[26]
  viability, T/C: 9.33%
[5]
  viability, T/C: 96.2%
[6]
  viability, T/C: 118%
[7]
  viability, T/C: 73.6%
[8]
  viability, T/C: 57.1%
[27]
  viability, T/C: 28.1%
[28]
  viability, T/C: 7.36%
[9]
  viability, T/C: 109%
[10]
  viability, T/C: 105%
[11]
  viability, T/C: 105%
[12]
  viability, T/C: 42.7%
[29]
  viability, T/C: 27.1%
[30]
  viability, T/C: 9.47%
[13]
  viability, T/C: 118%
[14]
  viability, T/C: 94.5%
[15]
  viability, T/C: 72.9%
[16]
  viability, T/C: 59.2%
[31]
  viability, T/C: 19.1%
[32]
  viability, T/C: 8.77%
[17]
  viability, T/C: 111%
[18]
  viability, T/C: 87.1%
[19]
  viability, T/C: 96.9%
[20]
  viability, T/C: 43.3%
[33]
  viability, T/C: 21.7%
[34]
  viability, T/C: 8.55%
[21]
  viability, T/C: 105%
[22]
  viability, T/C: 103%
[23]
  viability, T/C: 72.6%
[24]
  viability, T/C: 35.2%
[35]
  viability, T/C: 19.3%
[36]
  viability, T/C: 6.41%

## CCCS(=O)(=O)Nc1ccc(F)c(C(=O)c2c[nH]c3ncc(-c4ccc(Cl)cc4)cc23)c1F + Nc1ccc(C#CCN(C(=O)Cc2ncc(C(F)(F)F)cc2C(F)(F)F)c2ccc(F)cc2)nn1
Second compound 0.0316 µM
  IC50: 5070 nM
Second compound 0.1 µM
  IC50: 5350 nM
Second compound 0.316 µM
  IC50: 5460 nM
Second compound 1 µM
  IC50: 4500 nM
Second compound 3.16 µM
  IC50: 4290 nM
Second compound 10 µM
  IC50: 4700 nM
[1]
  viability, T/C: 96.6%
[2]
  viability, T/C: 106%
[3]
  viability, T/C: 97.2%
[4]
  viability, T/C: 104%
[25]
  viability, T/C: 80%
[26]
  viability, T/C: 7%
[5]
  viability, T/C: 107%
[6]
  viability, T/C: 109%
[7]
  viability, T/C: 87.5%
[8]
  viability, T/C: 98.9%
[27]
  viability, T/C: 86.8%
[28]
  viability, T/C: 6.32%
[9]
  viability, T/C: 99%
[10]
  viability, T/C: 101%
[11]
  viability, T/C: 102%
[12]
  viability, T/C: 108%
[29]
  viability, T/C: 87.9%
[30]
  viability, T/C: 7.94%
[13]
  viability, T/C: 107%
[14]
  viability, T/C: 103%
[15]
  viability, T/C: 107%
[16]
  viability, T/C: 98.6%
[31]
  viability, T/C: 68%
[32]
  viability, T/C: 9.46%
[17]
  viability, T/C: 121%
[18]
  viability, T/C: 110%
[19]
  viability, T/C: 102%
[20]
  viability, T/C: 96.6%
[33]
  viability, T/C: 67.2%
[34]
  viability, T/C: 5.17%
[21]
  viability, T/C: 96.8%
[22]
  viability, T/C: 105%
[23]
  viability, T/C: 96.1%
[24]
  viability, T/C: 113%
[35]
  viability, T/C: 73.2%
[36]
  viability, T/C: 5.45%
